Bridge positions count the residues as written; N and C are the ends. Square brackets hold non-standard residues; d marks the D form. Peptide text beside a SMILES is read from it. N(3-imidazol-1-ylpropyl)Gly = O=C(O)CNCCCn1ccnc1; Phe(4-F) = N[C@@H](Cc1ccc(F)cc1)C(=O)O; 2Nal = N[C@@H](Cc1ccc2ccccc2c1)C(=O)O; Gly(N-2-aminoethyl) = NCCNCC(=O)O; Cit = NC(=O)NCCC[C@H](N)C(=O)O; Dab = NCC[C@H](N)C(=O)O
Experiments:
[1] = test system: human red blood cells (hRBC); assay: Hemolysis; assay type: cell-based
Summary of the method: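 Washed fresh human erythrocytes (20% v/v, about 0.9×10^9 cells/ml final) incubated with peptide at 100 μM for 1 h at 37° C. Supernatant diluted 20-fold and OD540 read. Percent hemolysis relative to 0.1% Triton X-100 in H2O (100%), with PBS alone as 0%.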

in vitro = details: human
CXCR4 = CXCR4 (Homo sapiens, UniProt P61073); assay: Ca2+-assay method 2 (Flexstation, SDF-1 induced calcium mobilization); assay type: cell-based; parameters: expressed in transfected cells; host or cells: mouse pre-B cell line 300-19; details: method 2 (Ex. 54-160), mouse pre-B cell line 300-19 with human CXCR4, 10 nM SDF-1; read-out: IC50 (nM) Ca^2+ assay
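For GI50 in this document: MTT reduction read as absorbance at 595 nm, blank-corrected and expressed as percent growth relative to the time-zero cell reading, triplicate wells per concentration.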

Chain of CXCR4 (P61073 whole entry): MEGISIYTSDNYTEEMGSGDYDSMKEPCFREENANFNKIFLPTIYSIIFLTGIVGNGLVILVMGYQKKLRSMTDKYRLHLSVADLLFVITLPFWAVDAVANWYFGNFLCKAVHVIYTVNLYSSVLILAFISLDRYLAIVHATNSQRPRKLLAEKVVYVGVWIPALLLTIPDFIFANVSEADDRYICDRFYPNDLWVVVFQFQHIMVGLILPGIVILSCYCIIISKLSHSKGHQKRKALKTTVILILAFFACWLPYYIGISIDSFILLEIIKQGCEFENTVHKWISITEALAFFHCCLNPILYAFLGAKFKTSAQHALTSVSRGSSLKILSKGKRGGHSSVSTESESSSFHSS

Row | Compound | Hemolysis at 100 μM [1] | GI50 at 48 h (in vitro) | IC50 (CXCR4)
1 | N=C(N)NCCC[C@@H]1NC(=O)[C@@H]2CSSC[C@H](NC(=O)[C@H](Cc3ccc(O)cc3)NC(=O)[C@H](CCCNC(=N)N)NC(=O)[C@H](CCCNC(=N)N)NC(=O)[C@H]3CCCN3C(=O)CNC1=O)C(=O)N[C@@H](Cc1ccc(O)cc1)C(=O)N[C@@H](CCC(N)=O)C(=O)N[C@@H](CCCCN)C(=O)N1CCC[C@@H]1C(=O)N1CCC[C@H]1C(=O)N[C@@H](Cc1ccc(O)cc1)C(=O)N[C@@H](CCCNC(=N)N)C(=O)N[C@@H](Cc1ccc(O)cc1)C(=O)N2 [Ex. 148] (cyclo(YRYCRG[dP]RRYCYQK[dP]P); disulfide 4-11) | 71% | 46 µM | 0.65 nM
2 | C[C@@H]1NC(=O)[C@H](CCC(N)=O)NC(=O)[C@H](Cc2ccc(O)cc2)NC(=O)[C@@H]2CSSC[C@H](NC(=O)[C@H](CCCNC(N)=O)NC(=O)[C@H](CCCNC(=N)N)NC(=O)[C@H](Cc3ccc(O)cc3)NC(=O)[C@@H]3CCCN3C(=O)[C@H]3CCCN3C1=O)C(=O)N[C@@H](CCCNC(=N)N)C(=O)NCC(=O)N1CCC[C@@H]1C(=O)N[C@@H](CCCNC(=N)N)C(=O)N[C@@H](CCCNC(=N)N)C(=O)N[C@@H](Cc1ccc3ccccc3c1)C(=O)N2 [Ex. 86] (cyclo(YR[Cit]CRG[dP]RR[2Nal]CYQA[dP]P); disulfide 4-11) | 0% | 62 µM | 0.69 nM
3 | N=C(N)NCCC[C@@H]1NC(=O)[C@@H]2CSSC[C@H](NC(=O)[C@H](Cc3c[nH]c4ccccc34)NC(=O)[C@H](CCCNC(=N)N)NC(=O)[C@H](CCCNC(=N)N)NC(=O)[C@H]3CCCN3C(=O)CNC1=O)C(=O)N[C@@H](Cc1ccc(O)cc1)C(=O)N[C@@H](CCCNC(N)=O)C(=O)N[C@@H](CCC(N)=O)C(=O)N1CCC[C@@H]1C(=O)N1CCC[C@H]1C(=O)N[C@@H](Cc1ccc(O)cc1)C(=O)N[C@@H](CCCNC(=N)N)C(=O)N[C@@H](CCCNC(N)=O)C(=O)N2 [Ex. 121] (cyclo(YR[Cit]CRG[dP]RRWCY[Cit]Q[dP]P); disulfide 4-11) | 0% | 79 µM | 6.5 nM
4 | CC[C@H](C)[C@@H]1NC(=O)[C@@H]2CCCN2C(=O)[C@H]2CCCN2C(=O)[C@H](CCCCN)NC(=O)[C@H](CCC(N)=O)NC(=O)[C@H](Cc2ccc(O)cc2)NC(=O)[C@@H]2CSSC[C@H](NC(=O)[C@H](CCCNC(N)=O)NC(=O)[C@H](CCCNC(=N)N)NC1=O)C(=O)N[C@@H](CCCNC(=N)N)C(=O)NCC(=O)N1CCC[C@@H]1C(=O)N[C@@H](CCCNC(=N)N)C(=O)N[C@@H](CCCNC(=N)N)C(=O)N[C@@H](Cc1ccc3ccccc3c1)C(=O)N2 [Ex. 65] (cyclo(IR[Cit]CRG[dP]RR[2Nal]CYQK[dP]P); disulfide 4-11) | 0.2% | 65 µM | 3.9 nM
5 | N=C(N)NCCC[C@@H]1NC(=O)[C@@H]2CSSC[C@H](NC(=O)[C@H](Cc3ccc4ccccc4c3)NC(=O)[C@H](CCCNC(=N)N)NC(=O)[C@H](CCCNC(=N)N)NC(=O)[C@H]3CCCN3C(=O)CNC1=O)C(=O)N[C@@H](Cc1ccc(O)cc1)C(=O)N[C@@H](CCC(N)=O)C(=O)N[C@@H](CCCCN)C(=O)N1CCC[C@@H]1C(=O)N1CCC[C@H]1C(=O)N[C@@H](Cc1ccc(O)cc1)C(=O)N[C@@H](CCCNC(=N)N)C(=O)N[C@@H](Cc1c[nH]c3ccccc13)C(=O)N2 [Ex. 73] (cyclo(YRWCRG[dP]RR[2Nal]CYQK[dP]P); disulfide 4-11) | 0.3% | 20 µM | 8.8 nM
6 | N=C(N)NCCC[C@@H]1NC(=O)[C@@H]2CSSC[C@H](NC(=O)[C@H](Cc3ccc4ccccc4c3)NC(=O)[C@H](CCCNC(=N)N)NC(=O)[C@H](CCCNC(=N)N)NC(=O)[C@H]3CCCN3C(=O)CNC1=O)C(=O)N[C@@H](Cc1ccc(O)cc1)C(=O)N[C@@H](CCC(N)=O)C(=O)N[C@@H](CCCCN)C(=O)N1CCC[C@@H]1C(=O)N1CCC[C@H]1C(=O)N[C@@H](Cc1ccc(O)cc1)C(=O)N[C@@H](CCCNC(=N)N)C(=O)N[C@@H](CC(N)=O)C(=O)N2 [Ex. 92] (cyclo(YRNCRG[dP]RR[2Nal]CYQK[dP]P); disulfide 4-11) | 0.5% | 53 µM | 1.1 nM
7 | N=C(N)NCCC[C@@H]1NC(=O)[C@@H]2CSSC[C@H](NC(=O)[C@H](Cc3ccc4ccccc4c3)NC(=O)[C@H](CCCNC(=N)N)NC(=O)[C@H](CCCNC(=N)N)NC(=O)[C@H]3CCCN3C(=O)CNC1=O)C(=O)N[C@@H](Cc1ccc(O)cc1)C(=O)N[C@@H](CCCCN)C(=O)N[C@@H](CCCCN)C(=O)N1CCC[C@@H]1C(=O)N1CCC[C@H]1C(=O)N[C@@H](Cc1ccc(O)cc1)C(=O)N[C@@H](CCCNC(=N)N)C(=O)N[C@@H](CCCNC(N)=O)C(=O)N2 [Ex. 79] (cyclo(YR[Cit]CRG[dP]RR[2Nal]CYKK[dP]P); disulfide 4-11) | 0% | 94 µM | 2.4 nM
8 | N=C(N)NCCC[C@@H]1NC(=O)[C@H](CCCNC(=N)N)NC(=O)[C@H]2CCCN2C(=O)CNC(=O)CN(CCN)C(=O)[C@@H]2CSSC[C@H](NC(=O)[C@H](Cc3ccc4ccccc4c3)NC1=O)C(=O)N[C@@H](Cc1ccc(O)cc1)C(=O)N[C@@H](CCCNC(N)=O)C(=O)N[C@@H](CCCCN)C(=O)N1CCC[C@@H]1C(=O)N1CCC[C@H]1C(=O)N[C@@H](Cc1ccc(O)cc1)C(=O)N[C@@H](CCCNC(=N)N)C(=O)N[C@@H](CCCNC(N)=O)C(=O)N2 [Ex. 138] (cyclo(YR[Cit]C[Gly(N-2-aminoethyl)]G[dP]RR[2Nal]CY[Cit]K[dP]P); disulfide 4-11) | 0% | 18 µM | 63 nM
9 | N=C(N)NCCC[C@@H]1NC(=O)[C@@H]2CCC(=O)NCC[C@H](NC(=O)[C@H](Cc3c[nH]c4ccccc34)NC(=O)[C@H](CCCNC(=N)N)NC(=O)[C@H](CCCNC(=N)N)NC(=O)[C@H]3CCCN3C(=O)CNC1=O)C(=O)N[C@@H](Cc1ccc(O)cc1)C(=O)N[C@@H](CCCNC(N)=O)C(=O)N[C@@H](CCCCN)C(=O)N1CCC[C@@H]1C(=O)N1CCC[C@H]1C(=O)N[C@@H](Cc1ccc(O)cc1)C(=O)N[C@@H](CCCNC(=N)N)C(=O)N[C@@H](CCCNC(N)=O)C(=O)N2 [Ex. 153] (cyclo(YR[Cit]ERG[dP]RRW[Dab]Y[Cit]K[dP]P); lactam 4-11) | 1.7% | 43 µM | 21.9 nM
10 | N=C(N)NCCC[C@@H]1NC(=O)[C@@H]2CSSC[C@H](NC(=O)[C@H](Cc3ccc(O)cc3)NC(=O)[C@H](CCCNC(=N)N)NC(=O)[C@H](CCCNC(=N)N)NC(=O)[C@H]3CCCN3C(=O)CNC1=O)C(=O)N[C@@H](Cc1ccc(O)cc1)C(=O)N[C@@H](CCCNC(N)=O)C(=O)N[C@@H](CCCCN)C(=O)N1CCC[C@@H]1C(=O)N1CCC[C@H]1C(=O)N[C@@H](Cc1ccc(O)cc1)C(=O)N[C@@H](CCCNC(=N)N)C(=O)N[C@@H](CCCNC(N)=O)C(=O)N2 [Ex. 112] (cyclo(YR[Cit]CRG[dP]RRYCY[Cit]K[dP]P); disulfide 4-11) | 0% | 76 µM | 7.8 nM
11 | N=C(N)NCCC[C@@H]1NC(=O)CN(CCCn2ccnc2)C(=O)[C@H]2CCCN2C(=O)CNC(=O)[C@H](CCCNC(=N)N)NC(=O)[C@@H]2CSSC[C@H](NC(=O)[C@H](Cc3ccc4ccccc4c3)NC1=O)C(=O)N[C@@H](Cc1ccc(O)cc1)C(=O)N[C@@H](CCCNC(N)=O)C(=O)N[C@@H](CCCCN)C(=O)N1CCC[C@@H]1C(=O)N1CCC[C@H]1C(=O)N[C@@H](Cc1ccc(O)cc1)C(=O)N[C@@H](CCCNC(=N)N)C(=O)N[C@@H](CCCNC(N)=O)C(=O)N2 [Ex. 125] (cyclo(YR[Cit]CRG[dP][N(3-imidazol-1-ylpropyl)Gly]R[2Nal]CY[Cit]K[dP]P); disulfide 4-11) | 0% | > 100 µM | 330 nM
12 | N=C(N)NCCC[C@@H]1NC(=O)[C@@H]2CSSC[C@H](NC(=O)[C@H](Cc3ccc4ccccc4c3)NC(=O)[C@H](CCCNC(=N)N)NC(=O)[C@H](CCCNC(=N)N)NC(=O)[C@H]3CCCN3C(=O)CNC1=O)C(=O)N[C@@H](Cc1ccc(O)cc1)C(=O)N[C@@H](CCC(N)=O)C(=O)N[C@@H](CO)C(=O)N1CCC[C@@H]1C(=O)N1CCC[C@H]1C(=O)N[C@@H](Cc1ccc(O)cc1)C(=O)N[C@@H](CCCNC(=N)N)C(=O)N[C@@H](CCCNC(N)=O)C(=O)N2 [Ex. 87] (cyclo(YR[Cit]CRG[dP]RR[2Nal]CYQS[dP]P); disulfide 4-11) | 0% | 64 µM | 3.5 nM
13 | N=C(N)NCCC[C@@H]1NC(=O)[C@@H]2CSSC[C@H](NC(=O)[C@H](Cc3c[nH]c4ccccc34)NC(=O)[C@H](CCCNC(=N)N)NC(=O)[C@H](Cc3ccc(F)cc3)NC(=O)[C@H]3CCCN3C(=O)CNC1=O)C(=O)N[C@@H](Cc1ccc(O)cc1)C(=O)N[C@@H](CCCNC(N)=O)C(=O)N[C@@H](CCCCN)C(=O)N1CCC[C@@H]1C(=O)N1CCC[C@H]1C(=O)N[C@@H](Cc1ccc(O)cc1)C(=O)N[C@@H](CCCNC(=N)N)C(=O)N[C@@H](CCCNC(N)=O)C(=O)N2 [Ex. 122] (cyclo(YR[Cit]CRG[dP][Phe(4-F)]RWCY[Cit]K[dP]P); disulfide 4-11) | 0% | 60 µM | 8.8 nM
14 | C[C@@H](O)[C@@H]1NC(=O)[C@H](CCCNC(=N)N)NC(=O)[C@H](Cc2ccc(O)cc2)NC(=O)[C@@H]2CCCN2C(=O)[C@H]2CCCN2C(=O)[C@H](CCCCN)NC(=O)[C@H](CCC(N)=O)NC(=O)[C@H](Cc2ccc(O)cc2)NC(=O)[C@@H]2CSSC[C@H](NC1=O)C(=O)N[C@@H](CCCNC(=N)N)C(=O)NCC(=O)N1CCC[C@@H]1C(=O)N[C@@H](CCN)C(=O)N[C@@H](CCCNC(=N)N)C(=O)N[C@@H](Cc1ccc3ccccc3c1)C(=O)N2 [Ex. 104] (cyclo(YRTCRG[dP][Dab]R[2Nal]CYQK[dP]P); disulfide 4-11) | 0% | 71 µM | 7.4 nM
